Data published in patent US12521388B2, “Substituted dipyrido[1,2-a:1′,2′-d]pyrazines for treating viral infections” (Gilead Sciences, Inc., priority 2013, dated 2026).
Like-named read-outs stand apart in the source and are kept apart here.

Legend:
HIV-IIIb = test: Antiviral assay in MT4 cells; assay type: cell-based; settings: Human immunodeficiency virus 1, 120 h; MT4 cells infected with HIV-IIIb (0.004 m.o.i.), 5 days incubation, CellTiter-Glo; average over time; read-out: EC50 nM in MT-4
Method: (§1) For the antiviral assay utilizing MT4 cells, 0.4 μL of […] test concentration of 3-fold serially diluted compound in DMSO was added to 40 μL of cell growth medium (RPMI 1640, 10% FBS, 1% penicilline/Streptomycine, 1% L-Glutamine, 1% HEPES) in each well of 384-well assay plates (10 concentrations) in quidruplicate. 1 mL aliquots of 2×10^6 MT4 cells are pre-infected for 1 and 3 hours respectively at 37° C. with 25 μL (MT4) or of either cell growth medium (mock-infected) or a fresh 1:250 dilution of an HIV-IIIb concentrated ABI stock (0.004 m.o.i. for MT4 cells). Infected and uninfected cells are diluted in cell growth medium and 35 μL of 2000 (for MT4) cells is added to each well of the assay plates. Assay plates were then incubated in a 37° C. incubator. After 5 days of incubation, 25 μL of 2× concentrated CellTiter-Glo™ Reagent (catalog #G7573, Promega Biosciences, Inc., Madison, WI) was added to each well of the assay plate. Cell lysis was carried out by incubating at room temperature for 2-3 minutes, and then chemiluminescence was read using the Envision reader (PerkinElmer).

[1] = Cytotoxicity in MT4 cells (mock-infected) in the antiviral assay; assay type: cell-based; settings: human
Method: as §1

[2] = MT4 cells (mock-infected), MT4 cells, 5 days incubation, CellTiter-Glo, average over time, read-out: CC50 nM in MT-4

Compound	EC50 (HIV-IIIb)	CC50 at 5 days [1, 2]	CC50 at 5 days [1]
C[C@@H](NC(=O)c1cn2c(c(O)c1=O)C(=O)N1C3CCC1(CC3)C2)c1c(F)cc(F)cc1F [Compound 14]	6.2 nM	13200 nM	–
O=C(NCc1cccc(Cl)c1F)c1cn2c(c(O)c1=O)C(=O)N1C[C@H]3CCC[C@@]1(C3)C2 [Compound 8]	2.3 nM	5300 nM	–
O=C(NCc1ccc(F)cc1F)c1cn2c(c(O)c1=O)C(=O)N1C[C@H]3CC[C@@]1(C3)C2 [Compound 11]	3.2 nM	27900 nM	–
O=C(NCc1ccc(F)cc1F)c1cn2c(c(O)c1=O)C(=O)N1C[C@H]3CC[C@@]1(CC3)C2 [Compound 2]	4.4 nM	53200 nM	–
O=C(NCc1ccc(F)cc1F)c1cn2c(c(O)c1=O)C(=O)N1C3CCC1(CC3)C2 [Compound 3]	1.9 nM	–	26200 nM
O=C(NCc1ccc(F)cc1F)c1cn2c(c(O)c1=O)C(=O)N1C[C@H]3C[C@]1(C2)C3 [Compound 1]	3.5 nM	49900 nM	–

Second part, led by results:

EC50 (HIV-IIIb)	Compound	CC50 at 5 days [1, 2]	CC50 at 5 days [1]
3.2 nM	O=C(NCc1c(F)cc(F)cc1F)c1cn2c(c(O)c1=O)C(=O)N1C[C@H]3CC[C@@]1(C3)C2 [Compound 12]	53200 nM	–
2.3 nM	O=C(NCc1c(F)cc(F)cc1F)c1cn2c(c(O)c1=O)C(=O)N1C3CCC1(CC3)C2 [Compound 15]	24000 nM	–
1.7 nM	O=C(NCc1c(F)cc(F)cc1F)c1cn2c(c(O)c1=O)C(=O)N1C[C@@H]3CC[C@]1(C3)C2 [Compound 13]	24300 nM	–
1.3 nM	O=C(NCc1c(F)cc(F)cc1F)c1cn2c(c(O)c1=O)C(=O)N1C[C@@H]3CCC[C@]1(C3)C2 [Compound 5]	10600 nM	–
2.8 nM	O=C(NCc1c(F)cc(F)cc1F)c1cn2c(c(O)c1=O)C(=O)N1C[C@H]3CCC[C@@]1(C3)C2 [Compound 7]	13000 nM	–
1.6 nM	O=C(NCc1ccc(F)cc1F)c1cn2c(c(O)c1=O)C(=O)N1C[C@@H]3CCC[C@]1(C3)C2 [Compound 4]	11000 nM	–
1.4 nM	C[C@@]12CCC[C@]3(Cn4cc(C(=O)NCc5c(F)cc(F)cc5F)c(=O)c(O)c4C(=O)N3C1)C2 [Compound 9]	8660 nM	–
2.3 nM	O=C(NCc1ccc(F)cc1F)c1cn2c(c(O)c1=O)C(=O)N1C[C@@H]3CC[C@]1(C3)C2 [Compound 10, (3R,12aS)—N-(2,4-difluorobenzyl)-7-hydroxy-6,8-dioxo-2,3,4,6,8,12-hexahydro-1H-3,12a-methanodipyrido[1,2-a:1′,2′-d]pyrazine-9-carboxamide]	24000 nM	–
2.6 nM	O=C(NCc1ccc(F)cc1F)c1cn2c(c(O)c1=O)C(=O)N1C[C@H]3CCC[C@@]1(C3)C2 [Compound 6]	9660 nM	–
